Experimental data from patent EP4635500A1, “THERAPEUTIC AGENT FOR BACTERIAL INFECTION” (Sumitomo Pharma Co., Ltd., priority 2022, dated 2024).
≈ marks a conversion by molar mass, not a printed value. Where two headings read alike, the source gives them in different places.

Legend:
53 CRE and CPE strains = assay: MICrange, MIC50, MIC80, MIC90 for 53 bacterial isolates (Example 5, Table 5); type: cell-based
A. baumannii = assay: MIC, broth microdilution, CDC/FDA Antibiotic Resistance Isolate Bank (Example 7, Tables 9, 13, 14); type: cell-based, Acinetobacter baumannii; settings: for MIC: read-out: MIC
P. aeruginosa = assay: MIC, broth microdilution, CDC/FDA Antibiotic Resistance Isolate Bank (Example 7, Tables 10, 15); type: cell-based; settings: for MIC: Pseudomonas aeruginosa, read-out: MIC
[1] = MIC distribution, metallo-β-lactamase-producing A. baumannii, inhibitor µg/mL in parentheses
[2] = 26 metallo-carbapenemase-producing P. aeruginosa strains, β-lactamase inhibitor µg/mL in parentheses
[3] = 96 strains of P. aeruginosa, β-lactamase inhibitor µg/mL in parentheses

SMILES: CC(C)(O/N=C(\C(=O)N[C@@H]1C(=O)N2C(C(=O)[O-])=C(C[N+]3(CCNC(=O)c4ccc(O)c(O)c4Cl)CCCC3)CS[C@H]12)c1csc(N)n1)C(=O)O [Cefiderocol, cefiderocol]
- MIC90 (53 CRE and CPE strains; 53 CRE and CPE strains, read-out: MIC90): 4 µg/mL (≈ 5.32 µM)
- MIC90 (53 CRE and CPE strains; 53 bacterial isolates): 4 µg/mL (≈ 5.32 µM)
- MICrange (53 CRE and CPE strains; 53 bacterial isolates): ≤0.06 to 8 µg/mL
- MIC80 (53 CRE and CPE strains; 53 bacterial isolates, read-out: MIC80): 2 µg/mL (≈ 2.66 µM)
- MICrange (A. baumannii; 55 isolates of A. baumannii): ≤0.06 to 16 µg/mL
- MIC (A. baumannii; Acinetobacter baumannii, A. baumannii KUB No. 5567, AR Bank #70, OXA-58, OXA-100): ≤ 0.06 µg/mL
- MIC (A. baumannii; Acinetobacter baumannii, A. baumannii KUB No. 5575, AR Bank #78, OXA-71): 4 µg/mL (≈ 5.32 µM)
- MIC (A. baumannii; Acinetobacter baumannii, A. baumannii KUB No. 5580, AR Bank #83, OXA-23, OXA-69, NDM-1): 16 µg/mL (≈ 21.3 µM)
- MIC (A. baumannii; Acinetobacter baumannii, A. baumannii KUB No. 5585, AR Bank #88, OXA-64, NDM-1): 2 µg/mL (≈ 2.66 µM)
- MIC (A. baumannii; Acinetobacter baumannii, A. baumannii KUB No. 5598, AR Bank #101, OXA-24, OXA-65): 0.5 µg/mL (≈ 0.665 µM)
- MIC (A. baumannii; Acinetobacter baumannii, A. baumannii KUB No. 5599, AR Bank #102, OXA-66): 0.12 µg/mL (≈ 0.16 µM)
- MIC (A. baumannii; Acinetobacter baumannii, A. baumannii KUB No. 5706, AR Bank #273, OXA-23, OXA-66): 0.12 µg/mL (≈ 0.16 µM)
- MIC (A. baumannii; Acinetobacter baumannii, A. baumannii KUB No. 5707, AR Bank #274, OXA-66, OXA-72): 0.12 µg/mL (≈ 0.16 µM)
- MIC (A. baumannii; Acinetobacter baumannii, A. baumannii KUB No. 5708, AR Bank #275, OXA-23, OXA-66): 0.5 µg/mL (≈ 0.665 µM)
- MIC (A. baumannii; Acinetobacter baumannii, A. baumannii KUB No. 5709, AR Bank #276, no carbapenemase genes (-)): 8 µg/mL (≈ 10.6 µM)
- MIC (A. baumannii; Acinetobacter baumannii, A. baumannii KUB No. 5710, AR Bank #277, OXA-24, OXA-65): 4 µg/mL (≈ 5.32 µM)
- MIC (A. baumannii; Acinetobacter baumannii, A. baumannii KUB No. 5711, AR Bank #278, OXA-23, OXA-66): 0.5 µg/mL (≈ 0.665 µM)
- MIC (A. baumannii; Acinetobacter baumannii, A. baumannii KUB No. 5712, AR Bank #279, OXA-23, OXA-66): 0.25 µg/mL (≈ 0.332 µM)
- MIC (A. baumannii; Acinetobacter baumannii, A. baumannii KUB No. 5713, AR Bank #280, OXA-66): 0.25 µg/mL (≈ 0.332 µM)
- MIC (A. baumannii; Acinetobacter baumannii, A. baumannii KUB No. 5714, AR Bank #281, OXA-82): 0.12 µg/mL (≈ 0.16 µM)
- MIC (A. baumannii; Acinetobacter baumannii, A. baumannii KUB No. 5715, AR Bank #282, OXA-23, OXA-66): 0.5 µg/mL (≈ 0.665 µM)
- MIC (A. baumannii; Acinetobacter baumannii, A. baumannii KUB No. 5716, AR Bank #283, OXA-23, OXA-66): 0.25 µg/mL (≈ 0.332 µM)
- MIC (A. baumannii; Acinetobacter baumannii, A. baumannii KUB No. 5717, AR Bank #284, OXA-24, OXA-65): 0.25 µg/mL (≈ 0.332 µM)
- MIC (A. baumannii; Acinetobacter baumannii, A. baumannii KUB No. 5718, AR Bank #285, OXA-24, OXA-65): 1 µg/mL (≈ 1.33 µM)
- MIC (A. baumannii; Acinetobacter baumannii, KUB No. 5719, AR Bank #286): 0.5 µg/mL (≈ 0.665 µM)
- MIC (A. baumannii; Acinetobacter baumannii, KUB No. 5720, AR Bank #287): 0.5 µg/mL (≈ 0.665 µM)
- MIC (A. baumannii; Acinetobacter baumannii, KUB No. 5721, AR Bank #288): 0.25 µg/mL (≈ 0.332 µM)
- MIC (A. baumannii; Acinetobacter baumannii, KUB No. 5722, AR Bank #259): 0.12 µg/mL (≈ 0.16 µM)
- MIC (A. baumannii; Acinetobacter baumannii, KUB No. 5723, AR Bank #290): 0.5 µg/mL (≈ 0.665 µM)
- MIC (A. baumannii; Acinetobacter baumannii, KUB No. 5724, AR Bank #291): 0.5 µg/mL (≈ 0.665 µM)
- MIC (A. baumannii; Acinetobacter baumannii, KUB No. 5725, AR Bank #292): 0.5 µg/mL (≈ 0.665 µM)
- MIC (A. baumannii; Acinetobacter baumannii, KUB No. 5726, AR Bank #293): 0.5 µg/mL (≈ 0.665 µM)
- MIC (A. baumannii; Acinetobacter baumannii, KUB No. 5727, AR Bank #294): 0.5 µg/mL (≈ 0.665 µM)
- MIC (A. baumannii; Acinetobacter baumannii, KUB No. 5728, AR Bank #295): 0.5 µg/mL (≈ 0.665 µM)
- MIC (A. baumannii; Acinetobacter baumannii, KUB No. 5729, AR Bank #296): 0.5 µg/mL (≈ 0.665 µM)
- MIC (A. baumannii; Acinetobacter baumannii, KUB No. 5730, AR Bank #297): 0.12 µg/mL (≈ 0.16 µM)
- MIC (A. baumannii; Acinetobacter baumannii, KUB No. 5731, AR Bank #298): 0.5 µg/mL (≈ 0.665 µM)
- MIC (A. baumannii; Acinetobacter baumannii, KUB No. 5732, AR Bank #299): 8 µg/mL (≈ 10.6 µM)
- MIC (A. baumannii; Acinetobacter baumannii, KUB No. 5733, AR Bank #300): 0.25 µg/mL (≈ 0.332 µM)
- MIC (A. baumannii; Acinetobacter baumannii, KUB No. 5734, AR Bank #301): 1 µg/mL (≈ 1.33 µM)
- MIC (A. baumannii; Acinetobacter baumannii, KUB No. 5735, AR Bank #302): 4 µg/mL (≈ 5.32 µM)
- MIC (A. baumannii; Acinetobacter baumannii, KUB No. 5736, AR Bank #303): 0.12 µg/mL (≈ 0.16 µM)
- MIC (A. baumannii; Acinetobacter baumannii, KUB No. 5737, AR Bank #304): ≤ 0.06 µg/mL
- MIC (A. baumannii; Acinetobacter baumannii, KUB No. 5738, AR Bank #305): 0.25 µg/mL (≈ 0.332 µM)
- MIC (A. baumannii; Acinetobacter baumannii, KUB No. 5739, AR Bank #306): 1 µg/mL (≈ 1.33 µM)
- MIC (A. baumannii; Acinetobacter baumannii, KUB No. 5740, AR Bank #307): 0.12 µg/mL (≈ 0.16 µM)
- MIC (A. baumannii; Acinetobacter baumannii, KUB No. 5741, AR Bank #308): 0.25 µg/mL (≈ 0.332 µM)
- MIC (A. baumannii; Acinetobacter baumannii, KUB No. 5742, AR Bank #309): 4 µg/mL (≈ 5.32 µM)
- MIC (A. baumannii; Acinetobacter baumannii, KUB No. 5743, AR Bank #310): 2 µg/mL (≈ 2.66 µM)
- MIC (A. baumannii; Acinetobacter baumannii, KUB No. 5744, AR Bank #311): 0.5 µg/mL (≈ 0.665 µM)
- MIC (A. baumannii; Acinetobacter baumannii, KUB No. 5745, AR Bank #312): 0.25 µg/mL (≈ 0.332 µM)
- MIC (A. baumannii; Acinetobacter baumannii, KUB No. 5746, AR Bank #313): 1 µg/mL (≈ 1.33 µM)
- MIC50 (A. baumannii; Acinetobacter baumannii, 55 isolates of A. baumannii, read-out: MIC50): 0.5 µg/mL (≈ 0.665 µM)
- MIC80 (A. baumannii; Acinetobacter baumannii, 55 isolates of A. baumannii, read-out: MIC80): 2 µg/mL (≈ 2.66 µM)
- MIC90 (A. baumannii; Acinetobacter baumannii, 55 isolates of A. baumannii, read-out: MIC90): 4 µg/mL (≈ 5.32 µM)
- Number of isolates at MIC 2 µg/mL (A. baumannii; [1]): 2
- Number of isolates at MIC 16 µg/mL (A. baumannii; [1]): 1
- MIC against 26 metallo-carbapenemase-producing strains MIC50 (P. aeruginosa; [2]): 0.5 µg(mL)
- MIC against 26 metallo-carbapenemase-producing strains MIC90 (P. aeruginosa; [2]): 2 µg(mL)
- MIC against 26 metallo-carbapenemase-producing strains MICrange (P. aeruginosa; [2]): 0.25 - 4 µg(mL)
- MIC against 96 strains of P. aeruginosa MIC50 (P. aeruginosa; [3]): 0.5 µg(mL)
- MIC against 96 strains of P. aeruginosa MIC90 (P. aeruginosa; [3]): 2 µg(mL)
- MIC against 96 strains of P. aeruginosa MICrange (P. aeruginosa; [3]): ≤0.06 - 4 µg(mL)
- MIC (P. aeruginosa; P. aeruginosa KUB No. 579, AR Bank # 447): 0.12 µg/mL (≈ 0.16 µM)
- MIC (P. aeruginosa; P. aeruginosa KUB No. 5083, AR Bank # 250): 4 µg/mL (≈ 5.32 µM)
- MIC (P. aeruginosa; P. aeruginosa KUB No. 5551, AR Bank # 54): 0.5 µg/mL (≈ 0.665 µM)
- MIC (P. aeruginosa; P. aeruginosa KUB No. 5561, AR Bank # 64): 2 µg/mL (≈ 2.66 µM)
- MIC (P. aeruginosa; P. aeruginosa KUB No. 5587, AR Bank # 90): 1 µg/mL (≈ 1.33 µM)
- MIC (P. aeruginosa; P. aeruginosa KUB No. 5589, AR Bank # 92): 2 µg/mL (≈ 2.66 µM)
- MIC (P. aeruginosa; P. aeruginosa KUB No. 5591, AR Bank # 94): 2 µg/mL (≈ 2.66 µM)
- MIC (P. aeruginosa; P. aeruginosa KUB No. 5592, AR Bank # 95): 0.5 µg/mL (≈ 0.665 µM)
- MIC (P. aeruginosa; P. aeruginosa KUB No. 5597, AR Bank # 100): 0.5 µg/mL (≈ 0.665 µM)
- MIC (P. aeruginosa; P. aeruginosa KUB No. 5600, AR Bank # 103): 1 µg/mL (≈ 1.33 µM)
- MIC (P. aeruginosa; P. aeruginosa KUB No. 5602, AR Bank # 105): 1 µg/mL (≈ 1.33 µM)
- MIC (P. aeruginosa; P. aeruginosa KUB No. 5605, AR Bank # 108): 0.5 µg/mL (≈ 0.665 µM)
- MIC (P. aeruginosa; P. aeruginosa KUB No. 5607, AR Bank # 110): 0.25 µg/mL (≈ 0.332 µM)
- MIC (P. aeruginosa; P. aeruginosa KUB No. 5608, AR Bank # 111): 0.5 µg/mL (≈ 0.665 µM)
- MIC (P. aeruginosa; P. aeruginosa KUB No. 5662, AR Bank # 229): 0.12 µg/mL (≈ 0.16 µM)
- MIC (P. aeruginosa; P. aeruginosa KUB No. 5663, AR Bank # 230): 0.5 µg/mL (≈ 0.665 µM)
